# From patent US9089499B2, “Para-coumaric acid or para-hydroxycinnamic acid derivatives and their use in cosmetic or dermatological compositions” (BASF Beauty Care Solutions France S.A.S., priority 2005, dated 2015)
# Where two headings read alike, the source gives them in different places.
# Legend:
# skin of rabbits = test: Primary skin irritation in rabbits; format: in vivo; conditions: 10% in a 0.5% xanthan gel; undiluted, 0.5 ml to the skin of rabbits
# Protocol: The preparations described above are applied without dilution at a dose of 0.5 ml to the skin of 3 rabbits according to the method recommended by the OCDE Directive concerning the study of “the acute irritant/corrosive effect on the skin”. The products are classified according to the criteria defined by the decree of 1/2/1982 published in the JORF of 21/02/82.
# Human tyrosinase [1] = biological target: T1, Human tyrosinase (Homo sapiens, UniProt P14679); test: Inhibition of human tyrosinase after 24 h application to normal human melanocytes in monolayer; format: cell-based; conditions: for inhibition at 1000 µM: 10^−3 M
# T1 construct: endogenous in cells; host or cells: normal human melanocytes (abdominal surgery; several donors of fair, brown and black phototypes)
# T1 sequence (P14679 19-529): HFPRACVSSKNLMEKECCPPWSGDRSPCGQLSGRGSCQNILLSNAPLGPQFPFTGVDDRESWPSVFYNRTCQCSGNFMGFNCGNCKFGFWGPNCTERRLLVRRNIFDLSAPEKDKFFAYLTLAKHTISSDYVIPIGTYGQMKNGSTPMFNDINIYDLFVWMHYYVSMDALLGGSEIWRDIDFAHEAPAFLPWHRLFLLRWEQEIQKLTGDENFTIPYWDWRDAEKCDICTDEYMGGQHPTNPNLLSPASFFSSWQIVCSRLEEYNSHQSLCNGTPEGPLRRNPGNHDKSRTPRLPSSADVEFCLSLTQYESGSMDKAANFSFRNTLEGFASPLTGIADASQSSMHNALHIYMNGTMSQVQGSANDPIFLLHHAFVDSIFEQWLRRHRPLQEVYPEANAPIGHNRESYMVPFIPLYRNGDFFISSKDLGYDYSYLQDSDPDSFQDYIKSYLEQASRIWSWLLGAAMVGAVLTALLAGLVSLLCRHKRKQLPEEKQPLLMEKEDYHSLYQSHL
# Protocol: Normal human melanocytes (obtained from abdominal surgery) are seeded in 24-well plates at a rate of 80 000 cells per well. They are cultured to confluence and the active agents are applied for 24 hours to the culture media. After 24 hours, the media are removed and the melanocytes are detached via mechanical action. An extraction is performed via a thermal shock and the supernatants are then recovered and incubated with MBTH (Sigma) and L-dopa (Sigma). The OD at 490 nm is measured after 30 minutes, and the tyrosinase inhibition is calculated by relating the OD at 490 nm to the protein content (measured in each culture well) of the test relative to the ratio: OD 490 nm/protein concentration of the negative control (untreated control).
# The compounds derived from the examples mentioned above were tested on melanocytes derived from various donors but of fair phototype, according to the protocol described in Example 29. The donors tested are as follows: • donor S (donor tested in Example 12): • donor 1: • donor 2: • donor 3
# The compound derived from Example 1 is tested on cultures of melanocytes obtained from 2 donors of brown phototype and from one donor of black phototype. The protocol applied is that described in Example 29. […]
# Human tyrosinase [2] = biological target: T1, Human tyrosinase; test: In vitro test of inhibition of human tyrosinase from melanocyte extracts (L-dopa/MBTH, OD 490 nm); format: biochemical; conditions: melanocyte extract
# Protocol: Human tyrosinase, obtained from melanocyte extracts obtained from healthy donors, catalyses the formation of L-dopaquinone from L-dopa. Now, the L-dopaquinone may be quantified by visible spectrophotometry at 490 nm by means of a chromogen: 3-methyl-2-benzothiazolinone hydrazone (MBTH).
# The melanocyte extract is obtained after lysis of cell membranes of the normal human melanocytes, performed via a thermal shock. The supernatant is recovered and then incubated with MBTH (Sigma) and L-dopa (Sigma). […]
smiles,measurement,setting,value
"COc1cc(/C=C/C(=O)NCCc2ccc(O)c(O)c2)ccc1O [Example 1, N-trans-feruloyldopamine]",Primary skin irritation classification,skin of rabbits,non-irritant to the skin
same,inhibition at 100 µM,"Human tyrosinase [1]; 10^−4M, 24 hours, read-out: Inhibition of human tyrosinase after application to normal human melanocytes, percentage of inhibition, Mean 10^−4M",62.3%
same,inhibition at 10 µM,"Human tyrosinase [1]; 10^−5M, 24 hours, read-out: Inhibition of human tyrosinase after application to normal human melanocytes, percentage of inhibition, Mean 10^−5M",29.4%
same,inhibition at 1000 µM,"Human tyrosinase [1]; B103, Donor B, brown phototype, read-out: Inhibition of tyrosinase, Mean Donor B, 10^−3 M",87.2%
same,inhibition at 100 µM,"Human tyrosinase [1]; B104, Donor B, brown phototype, 10^−4 M, read-out: Inhibition of tyrosinase, Mean Donor B, 10^−4 M",65.8%
same,inhibition at 100 µM,"Human tyrosinase [1]; Donor 1, fair phototype, 10^−4 M, read-out: Inhibition of tyrosinase, Mean 10^−4 M, Donor 1",63.9%
same,inhibition at 10 µM,"Human tyrosinase [1]; Donor 1, fair phototype, 10^−5 M, read-out: Inhibition of tyrosinase, Mean 10^−5 M, Donor 1",35.8%
same,inhibition at 100 µM,"Human tyrosinase [1]; Donor 2, fair phototype, 10^−4 M, read-out: Inhibition of tyrosinase, Mean 10^−4 M, Donor 2",59.9%
same,inhibition at 10 µM,"Human tyrosinase [1]; Donor 2, fair phototype, 10^−5 M, read-out: Inhibition of tyrosinase, Mean 10^−5 M, Donor 2",12.9%
same,inhibition at 100 µM,"Human tyrosinase [1]; Donor 3, fair phototype, 10^−4 M, read-out: Inhibition of tyrosinase, Mean 10^−4 M, Donor 3",50.2%
same,inhibition at 10 µM,"Human tyrosinase [1]; Donor 3, fair phototype, 10^−5 M, read-out: Inhibition of tyrosinase, Mean 10^−5 M, Donor 3",18.9%
same,inhibition at 1000 µM,"Human tyrosinase [1]; Donor A, brown phototype, read-out: Inhibition of tyrosinase, Mean Donor A, 10^−3 M",99.4%
same,inhibition at 100 µM,"Human tyrosinase [1]; Donor A, brown phototype, 10^−4 M, read-out: Inhibition of tyrosinase, Mean Donor A, 10^−4 M",59.2%
same,inhibition at 10 µM,"Human tyrosinase [1]; Donor A, brown phototype, 10^−5 M, read-out: Inhibition of tyrosinase, Mean Donor A, 10^−5 M",29.3%
same,inhibition at 10 µM,"Human tyrosinase [1]; Donor B, brown phototype, 10^−5 M, read-out: Inhibition of tyrosinase, Mean Donor B, 10^−5 M",20.8%
same,inhibition at 100 µM,"Human tyrosinase [1]; Donor S, fair phototype, 10^−4 M, read-out: Inhibition of tyrosinase, Mean 10^−4 M, Donor S",62.3%
same,inhibition at 10 µM,"Human tyrosinase [1]; Donor S, fair phototype, 10^−5 M, read-out: Inhibition of tyrosinase, Mean 10^−5 M, Donor S",29.4%
same,inhibition at 100 µM,"Human tyrosinase [2]; 10^−4M, read-out: Inhibition of human tyrosinase, percentage of inhibition, Mean 10^−4M",0%
same,inhibition at 10 µM,"Human tyrosinase [2]; 10^−5M, read-out: Inhibition of human tyrosinase, percentage of inhibition, Mean 10^−5M",0%
